Measurements reported in patent US20210032253A1, “PYRAZOLO[1,5-A][1,3,5]TRIAZINE-2-AMINE DERIVATIVE, PREPARATION METHOD THEREFOR AND MEDICAL USE THEREOF” (JIANGSU HENGRUI MEDICINE CO., LTD., priority 2018, published 2021).

Key:
Format in all cases: cell-based
[1] = biological target: T1, adenosine A2a receptor (A2aR) (Homo sapiens, UniProt P29274); assay: Inhibition of adenosine A2a receptor cAMP signaling pathway in CHO-K1/A2aR cells (HTRF cAMP dynamic 2 kit); conditions: Table 1, 20 nM ethylcarbazole
T1 construct: expressed in transfected cells; host or cells: CHO-K1
Excerpt: (§1) Test Example 1. Determination of the inhibitory activities of the compounds of the present disclosure on the adenosine A2a receptor (A2aR) cAMP signaling pathway, the adenosine A1 receptor (A1R) cAMP signaling pathway and the adenosine A3 receptor (A3R) cAMP signaling pathway.
(§2) The inhibitory activities of the compounds of the present disclosure on the adenosine A2a receptor (A2aR) cAMP signaling pathway, the adenosine A1 receptor cAMP signaling pathway and the adenosine A3 receptor cAMP signaling pathway were determined by the following methods. The experimental method is briefly described as follows:
CHO-K1/A2aR cells were cultured in DMEM/F12 medium containing 10% fetal bovine serum and 800 μg/mL Zeocin™. The cells were digested with the cell dissociation buffer during the experiment. The cells were resuspended in the HBSS buffer containing 20 mM HEPES and 0.1% bovine serum albumin and counted, and the cell density was adjusted to 10^6 cells/mL. In 384-well plates, each well was added with 5 μL of the cell suspension, and 2.5 µL of test compounds (4× concentration) formulated with the HBSS buffer containing 20 mM HEPES, 0.1% bovine serum albumin, 54 μM rolipram and 2.7 U/mL adenosine deaminase, and the plates were incubated at room temperature for 30 minutes. Each well was then added with 2.5 μL of ethylcarbazole (4× concentration) formulated with the balanced salt buffer containing 20 mM HEPES, 0.1% bovine serum albumin, 54 μM rolipram and 2.7 U/mL adenosine deaminase, and the plates were incubated at room temperature for 30 minutes. The final concentrations of the compounds were: 10000, 2000, 400, 80, 16, 3.2, 0.64, 0.128, 0.0256, 0.00512, and 0.001024 nM. The final concentration of ethylcarbazole was 20 nM. Intracellular cAMP concentration was determined with cAMP dynamic 2 kits. cAMP-d2 and Anti-cAMP—Eu-Cryptate were diluted respectively with the cAMP lysis buffer at a ratio of 1:4. Each well was added with 5 μL of the diluted cAMP-d2, followed by addition of 5 μL of the diluted Anti-cAMP—Eu-Cryptate, and the plates were incubated at room temperature in the dark for 1 hour. The HTRF signal values were read by the PHERAstar multi-function microplate reader.

[2] = biological target: T2, adenosine A1 receptor (A1R) (Homo sapiens, UniProt P30542); assay: Inhibition of adenosine A1 receptor cAMP signaling pathway in CHO-K1/A1R cells (HTRF cAMP dynamic 2 kit); conditions: Table 2; for IC50: CHO-K1/A1R cells, cAMP, 10 μM forskolin, 10 nM CPA; for IC50 ratio (A1R/A2aR): selectivity A1R over A2aR
T2 construct: expressed in transfected cells; host or cells: CHO-K1
T2 sequence (P30542 1-326): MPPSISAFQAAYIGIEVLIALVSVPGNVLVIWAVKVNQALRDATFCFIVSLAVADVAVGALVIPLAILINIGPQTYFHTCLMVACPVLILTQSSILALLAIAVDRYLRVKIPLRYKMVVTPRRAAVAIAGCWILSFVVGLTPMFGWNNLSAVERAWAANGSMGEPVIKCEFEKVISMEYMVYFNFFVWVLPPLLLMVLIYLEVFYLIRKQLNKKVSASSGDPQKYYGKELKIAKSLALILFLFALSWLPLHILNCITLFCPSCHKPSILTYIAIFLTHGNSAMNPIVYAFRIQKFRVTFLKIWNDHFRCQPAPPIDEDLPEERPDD
Excerpt: as §1, §2
CHO-K1/A1R cells were cultured in DMEMIF12 medium containing 10% fetal bovine serum and 1 mg/mL G418. The cells were digested with the cell dissociation buffer during the experiment. The cells were then resuspended in the HBSS buffer containing 20 mM HEPES and 0.1% bovine serum albumin and counted, and the cell density was adjusted to 5×10^5 cells/mL. In 384-well plates, each well was added with 12.5 μL of the cell suspension, and 6.25 μL of the test compounds (4× concentration) formulated with the HBSS buffer containing 20 mM HEPES, 0.1% bovine serum albumin, 54 μM rolipram and 2.7 U/mL adenosine deaminase, and the plates were incubated at room temperature for 30 minutes. Each well was then added with 6.25 μL of forskolin and N6-cyclopentyladenosine (4× concentration) formulated with the HBSS buffer containing 20 mM HEPES, 0.1% bovine serum albumin, 54 μM rolipram and 2.7 U/mL adenosine deaminase, and the plates were incubated at room temperature for 30 minutes. The final concentrations of the compounds were: 100000, 10000, 1000, 100, 10, 1, 0.1 and 0 nM. The final concentration of forskolin was 10 μM. The final concentration of CPA was 10 nM. Intracellular cAMP concentration was determined with cAMP dynamic 2 kits. cAMP-d2 and Anti-cAMP—Eu-Cryptate were diluted respectively with the cAMP lysis buffer at a ratio of 1:4. Each well was added with 12.5 μL of the diluted cAMP-d2, followed by addition of 12.5 μL of the diluted Anti-cAMP—Eu-Cryptate, and the plates were incubated at room temperature in the dark for 1 hour. The HTRF signal values were read by the PHERAstar multi-function microplate reader.

[3] = biological target: T3, adenosine A3 receptor (A3R) (Homo sapiens, UniProt P0DMS8); assay: Inhibition of adenosine A3 receptor cAMP signaling pathway in CHO-K1/A3R cells (HTRF cAMP dynamic 2 kit); conditions: Table 3; for IC50: CHO-K1/A3R cells, cAMP, 10 μM forskolin, 5 nM 2Cl-IB-MECA; for IC50 ratio (A3R/A2aR): selectivity A3R over A2aR
T3 construct: expressed in transfected cells; host or cells: CHO-K1
T3 sequence (P0DMS8 1-318): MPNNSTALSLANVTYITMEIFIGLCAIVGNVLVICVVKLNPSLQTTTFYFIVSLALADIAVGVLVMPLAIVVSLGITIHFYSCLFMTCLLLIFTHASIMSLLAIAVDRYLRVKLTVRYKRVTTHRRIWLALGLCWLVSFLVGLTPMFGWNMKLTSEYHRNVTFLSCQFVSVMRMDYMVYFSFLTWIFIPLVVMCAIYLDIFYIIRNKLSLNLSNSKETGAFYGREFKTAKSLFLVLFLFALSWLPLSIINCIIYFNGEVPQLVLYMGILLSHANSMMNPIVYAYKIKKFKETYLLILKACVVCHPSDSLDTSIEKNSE
Excerpt: as §1, §2
CHO-K1/A3R cells were cultured in DMEMIF12 medium containing 10% fetal bovine serum and 10 μg/mL puromycin. The cells were digested with the cell dissociation buffer during the experiment. The cells were resuspended in the HBSS buffer containing 20 mM HEPES and 0.1% bovine serum albumin and counted, and the cell density was adjusted to 5×10^5 cells/mL. In 384-well plates, each well was added with 12.5 μL of the cell suspension, and 6.25 μL of the test compounds (4× concentration) formulated with the HBSS buffer containing 20 mM HEPES, 0.1% bovine serum albumin, 54 μM rolipram and 2.7 U/mL adenosine deaminase, and the plates were incubated at room temperature for 30 minutes. Each well was then added with 6.25 μL of forskolin and 2Cl-IB-MECA (4× concentration) formulated with the HBSS buffer containing 20 mM HEPES, 0.1% bovine serum albumin, […] rolipram and 2.7 U/mL adenosine deaminase, and the plates were incubated at room temperature for 30 minutes. The final concentrations of the compounds were: 100000, 10000, 1000, 100, 10, 1, 0.1 and 0 nM. The final concentration of forskolin was 10 μM. The final concentration of 2Cl-IB-MECA was 5 nM. Intracellular cAMP concentration was determined with cAMP dynamic 2 kits. cAMP-d2 and Anti-cAMP—Eu-Cryptate were diluted respectively with the cAMP lysis buffer at a ratio of 1:4. Each well was added with 12.5 μL of the diluted cAMP-d2, followed by addition of 12.5 μL of the diluted Anti-cAMP—Eu-Cryptate, and the plates were incubated at room temperature in the dark for 1 hour. The HTRF signal values were read by the PHERAstar multi-function microplate reader. IC50 values for the inhibitory activities of the compounds were calculated by Graphpad Prism software, and are shown in Table 3.

T1 sequence (P29274 whole entry): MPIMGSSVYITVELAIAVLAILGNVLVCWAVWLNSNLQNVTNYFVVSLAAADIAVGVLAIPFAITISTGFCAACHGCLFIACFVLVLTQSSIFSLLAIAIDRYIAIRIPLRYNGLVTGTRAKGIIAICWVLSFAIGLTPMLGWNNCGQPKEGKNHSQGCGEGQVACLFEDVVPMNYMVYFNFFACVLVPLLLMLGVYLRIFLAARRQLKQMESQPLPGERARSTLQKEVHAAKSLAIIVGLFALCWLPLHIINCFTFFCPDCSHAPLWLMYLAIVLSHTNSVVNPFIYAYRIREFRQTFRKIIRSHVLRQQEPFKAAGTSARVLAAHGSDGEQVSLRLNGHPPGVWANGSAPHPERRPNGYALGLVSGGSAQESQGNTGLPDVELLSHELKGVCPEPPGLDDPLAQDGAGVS

SMILES | IC50 [1] [nM] | IC50 [2] [nM] | IC50 ratio (A1R/A2aR) [2] | IC50 [3] [nM] | IC50 ratio (A3R/A2aR) [3]
Cc1ccc(-c2nc(N)nc3c(Cc4cccc(CO[C@@H]5CCOC5)n4)cnn23)o1 [Example 6, (R)-4-(5-Methylfuran-2-yl)-8-((6-(((tetrahydrofuran-3-yl)oxy)methyl)pyridin-2-yl)methyl)pyrazolo[1,5-a][1,3,5]triazin-2-amine] | 0.4 | 316 | 790^ | 4810 | >10^3
Cc1ccc(-c2nc(N)nc3c(Cc4cccc(CN5CCOCC5)n4)cnn23)o1 [Example 5, 4-(5-Methylfuran-2-yl)-8-((6-(morpholinomethyl)pyridin-2-yl)methyl)pyrazolo[1,5-a][1,3,5]triazin-2-amine] | 0.55 | 835 | >10^3 | 2280 | >10^3
Nc1nc(-c2ccco2)n2ncc(Cc3ccccc3F)c2n1 [Example 10, 8-(2-Fluorobenzyl)-4-(furan-2-yl)pyrazolo[1,5-a][1,3,5]triazin-2-amine] | 1.71 | 147 | 86^ | 358 | 209^
